Test results published in patent US9617310B2 (priority 2013, dated 2017).

Columns and labels:
NS3 genotype 3a protease = target: T1, NS3 genotype 3a protease (UniProt Q81258); assay: Ki determination, NS3 protease genotype 3a (fluorogenic depsipeptide substrate); format: biochemical, hepatitis C virus; conditions: NS3 protease domain genotype 3a, NS4A peptide
T1 construct: Purified NS3 protease domain (amino acids 1-181) of the genotype 1b and 3a virus were generated as above; fused on or other part: N-terminal hexahistidine tag with an rTEV protease cleavage site (vector p28-N6H-Tev-NS3(181)3)
T1 sequence (Q81258 1033-1663): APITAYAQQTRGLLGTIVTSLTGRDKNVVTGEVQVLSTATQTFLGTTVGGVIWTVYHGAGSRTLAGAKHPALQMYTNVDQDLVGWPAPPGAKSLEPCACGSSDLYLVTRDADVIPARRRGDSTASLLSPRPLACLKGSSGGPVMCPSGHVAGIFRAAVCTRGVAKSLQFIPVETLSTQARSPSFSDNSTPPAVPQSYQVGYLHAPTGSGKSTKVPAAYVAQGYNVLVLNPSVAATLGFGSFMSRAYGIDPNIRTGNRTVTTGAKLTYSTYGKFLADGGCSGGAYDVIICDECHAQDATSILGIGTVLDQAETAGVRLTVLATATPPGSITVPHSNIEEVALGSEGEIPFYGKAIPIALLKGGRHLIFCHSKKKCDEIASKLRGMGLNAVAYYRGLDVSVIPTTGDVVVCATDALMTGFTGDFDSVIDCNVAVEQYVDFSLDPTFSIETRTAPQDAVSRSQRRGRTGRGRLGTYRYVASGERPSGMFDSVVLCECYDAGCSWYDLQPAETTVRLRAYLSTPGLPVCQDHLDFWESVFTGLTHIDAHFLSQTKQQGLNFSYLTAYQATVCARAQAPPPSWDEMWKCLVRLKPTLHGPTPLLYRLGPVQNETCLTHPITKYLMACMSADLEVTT
Excerpt: Ki Determination for Genotypes 1b and 3a NS3 Protease.
Purified NS3 protease domain (amino acids 1-181) of the genotype 1b and 3a virus were generated as above. The internally quenched fluorogenic depsipeptide substrate Ac-DED(Edans)-EEAbuψ[COO]ASK(Dabcyl)-NH2 and a synthetic peptide containing the hydrophobic core residues of the NS4A protein cofactor ([…]; NS4A peptide) were obtained from Anaspec, Inc. (San Jose, Calif.). Other chemicals and biochemicals were of reagent grade or better and were purchased from standard suppliers.
Reactions were run at room temperature in buffer consisting of 50 mM HEPES, 40% glycerol, 0.05% Triton X-100, 10 mM DTT, and 10% DMSO. The final assay solutions contained 50 pM NS3 genotype 1b protease or 200 pM genotype 3a protease, 20 μM NS4A peptide, and 4 μM substrate (genotype 1b) or 2 μM substrate (genotype 3a). Inhibitor concentrations varied from 100 nM to 5 pM in 3-fold dilutions, and no-inhibitor controls were included.
Compound dilutions were made in DMSO at 20× final concentration. Reaction mixtures were prepared in 96-well assay plates. A solution of enzyme and NS4A peptide in assay buffer (25 μL volume with both reagents at 4× final concentration) was mixed with 45 μL assay buffer and 5 μL of either inhibitor or DMSO, and pre-incubated at room temperature for 1 hour. The reaction was started by addition of 25 μL substrate solution at 4× final concentration. Plates were mixed vigorously for 5-10 seconds and reactions were allowed to proceed for 90 minutes. Fluorescence was measured every 30 s between 90 and 120 minutes reaction time using a Tecan InfiniTe M1000 or PerkinElmer Envision multimode plate reader with an excitation wavelength of 340 nm and an emission wavelength of 490 nm.
Rates were calculated from the progress curves at steady state, in the time frame of 90-120 minutes after addition of substrate. To determine the Ki, rates were plotted as a function of inhibitor concentration, and the data were fit with equation 1 (Morrison, J. F., Biochimica et Biophysica Acta 1969, 185, 269-286) to calculate Ki^app using GraphPad Prism 5. Active fraction of enzyme was determined by active site titration with known potent inhibitors. Ki was calculated from Ki^app/(1+[[S]/Km]).

[1] = tested on: genotype 1a stable HCV replicon (H77) in Huh-7-derived cells; assay: Stable subgenomic HCV replicon, genotype 1a, Renilla luciferase; format: cell-based; conditions: Hepatitis C virus, stable replicon genotype 1a, 72 h, read-out: EC50 1A RLUC
Experimental: Antiviral potency (EC50) was determined in both stable subgenomic HCV replicon cell lines and transient-transfected HCV replicon cells. The term half maximal effective concentration (EC50) refers to the concentration of a drug which induces a response halfway between the baseline and maximum after the exposure time specified below.
Stable subgenomic HCV replicons for genotype 1a, 1b, 2a, 3a, and 4a were established in Huh-7-derived cells as described by Lohmann et al (Lohmann V, Korner F, Koch J, et al Replication of subgenomic hepatitis C virus RNAs in a hepatoma cell line. Science 1999; 285:119-3). Each stable cell line contains a bicistronic HCV replicon that encodes a humanized Renilla luciferase (hRLuc) reporter gene fused to a selectable neomycin-resistance gene, followed by an EMCV IRES and the NS3-NS5B coding region of HCV. […] Luciferase activity was measured as a marker for intracellular HCV replication levels.
The genotype 1a stable replicon was derived from the H77 HCV strain and contained adaptive mutations P1496L and S2204I. The genotype 1b stable replicon was derived from the Con1 HCV strain and contained adaptive mutations E1202G, T1280I, and K1846T. […] The genotype 3a stable replicon was derived from the S52 HCV strain and contained adaptive mutations P1121 L, A1198T and S2210I (equivalent to S2204I in genotype 1). The genotype 4a stable replicon was derived from the ED43 HCV strain and contained adaptive mutations Q1691R and S2204I. All replicon cell lines were propagated in Huh-7-derived cells and maintained in Dulbecco's modified Eagle's Medium (DMEM) supplemented with 10% fetal bovine serum (FBS) and 0.5 mg/ml G418.
To perform EC50 assays, cells from each HCV replicon were dispensed into 384-well plates. Compounds were dissolved in DMSO at a concentration of 10 mM and diluted in DMSO using an automated pipetting instrument. Three-fold serially diluted compounds were directly added to the cells using an automated instrument. DMSO was used as a negative (solvent; no inhibition) control, and a combination of three HCV inhibitors including a protease inhibitor; an NS5A inhibitor and a nucleoside inhibitor was used at concentrations >100×EC50 as a positive control (100% inhibition). Seventy-two hours later, cells were lysed and Renilla luciferase activity were quantified as recommended by the manufacturer (Promega-Madison, Wis.). Non-linear regression was performed to calculate […], values.

[2] = tested on: genotype 1b wild-type transient HCV replicon in Huh-7-derived cells; assay: Transient-transfected HCV replicon, genotype 1b wild type; format: cell-based; conditions: Hepatitis C virus; transient-transfected replicon genotype 1b wild type, 72 h; read-out: EC50 1B WT

Row | SMILES | Ki (NS3 genotype 3a protease) [nM] | EC50 [1] [nM] | EC50 [2] [nM]
1 | COc1ccc2nc3c(nc2c1)O[C@@H]1C[C@@H](C(=O)N[C@]2(C(=O)NS(=O)(=O)C4CC4)C[C@H]2C(F)F)N(C1)C(=O)[C@H](C(C)(C)C)NC(=O)O[C@H]1[C@H](CCCCC3)C[C@H]2C[C@H]21 [Example 7, (1aR,1bS,5S,8S,10R,22aR,23aR)-5-tert-butyl-N-[(1R,2R)-1-[(cyclopropylsulfonyl)carbamoyl]-2-(difluoromethyl)cyclopropyl]-14-methoxy-3,6-dioxo-1a,1b,3,4,5,6,9,10,18,19,20,21,22,22a,23,23a-hexadecahydro-1H,8H-7,10-methanocyclopropa[3′,40]cyclopenta[1′,2′:18,19][1,10,3,6]dioxadiazacyclononadecino[11,12-b]quinoxaline-8-carboxamide] | 9.5 | 95 | 53
2 | COc1ccc2nc3c(nc2c1)O[C@@H]1C[C@@H](C(=O)N[C@]2(C(=O)NS(=O)(=O)C4(C)CC4)C[C@H]2C(F)F)N(C1)C(=O)[C@H](C(C)(C)C)NC(=O)O[C@H]1[C@H](CCCCC3)C[C@H]2C[C@H]21 [Example 8, (1aR,1bS,5S,8S,10R,22aR,23aR)-5-tert-butyl-N-[(1R,2R)-2-(difluoromethyl)-1-{[(1-methylcyclopropyl)sulfonyl]carbamoyl}cyclopropyl]-14-methoxy-3,6-dioxo-1a,1b,3,4,5,6,9,10,18,19,20,21,22,22a, 23,23a-hexadecahydro-1H,8H-7,10-methanocyclopropa[3′,4′]cyclopenta [1′,2′:18,19][1,10,3,6]dioxadiazacyclononadecino[11,12-b]quinoxaline-8-carboxamide] | 8.5 | 76 | 33
3 | COc1ccc2nc3c(nc2c1)O[C@@H]1C[C@@H](C(=O)N[C@]2(C(=O)NS(=O)(=O)C4(C)CC4)C[C@H]2C(F)F)N(C1)C(=O)[C@H](C(C)(C)C)NC(=O)O[C@@H]1C[C@@H]2C[C@@H]2[C@H]1CCCCC3(F)F [Example 10, (1aS,2aR,6S,9S,11R,23aR,23bS)-6-tert-butyl-N-[(1R,2R)-2-(difluoromethyl)-1-{[(1-methylcyclopropyl)sulfonyl]carbamoyl}cyclopropyl]-19,19-difluoro-15-methoxy-4,7-dioxo-1a,2,2a,4,5,6,7,10,11,19,20,21,22,23,23a,23b-hexadecahydro-1H,9H-8,11-methanocyclopropa [4′,5′]cyclopenta[1′,2′:18,19][1,10,3,6]dioxadiazacyclononadecino[11,12-b]quinoxaline-9-carboxamide] | 0.02 | 1.6 | 0.75
4 | CC(C)(C)[C@@H]1NC(=O)O[C@@H]2C[C@@H]3C[C@@H]3[C@H]2CCCCCc2nc3ccc(F)cc3nc2O[C@@H]2C[C@@H](C(=O)N[C@]3(C(=O)NS(=O)(=O)C4(C)CC4)C[C@H]3C(F)F)N(C2)C1=O [Example 11, (1aS,2aR,6S,9S,11R,23aR,23bS)-6-tert-butyl-N-[(1R,2R)-2-(difluoromethyl)-1-{[(1-methylcyclopropyl)sulfonyl]carbamoyl}cyclopropyl]-15-fluoro-4,7-dioxo-1a,2,2a,4,5,6,7,10,11,19,20,21,22,23,23a,23b-hexadecahydro-1H,9H-8,11-methanocyclopropa[4′,5′]cyclopenta[1′,2′:18,19][1,10,3,6]dioxadiazacyclononadecino[11,12-b]quinoxaline-9-carboxamide] | 0.09 | 1.4 | 0.78
5 | CC(C)(C)[C@@H]1NC(=O)O[C@@H]2C[C@@H]3C[C@@H]3[C@H]2CCCCCc2nc3ccc(F)cc3nc2O[C@@H]2C[C@@H](C(=O)N[C@]3(C(=O)NS(=O)(=O)C4CC4)C[C@H]3C(F)F)N(C2)C1=O [Example 12, (1aS,2aR,6S,9S,11R,23aR,23bS)-6-tert-butyl-N-[(1R,2R)-1-[(cyclopropylsulfonyl)carbamoyl]-2-(difluoromethyl)cyclopropyl]-15-fluoro-4,7-dioxo-1a,2,2a,4,5,6,7,10,11,19,20,21,22,23,23a,23b-hexadecahydro-1H,9H-8,11-methanocyclopropa[4′,5′]cyclopenta[1′,2′:18,19][1,10,3,6]dioxadiazacyclononadecino[11,12-b]quinoxaline-9-carboxamide] | 0.09 | 1.7 | 0.64
6 | CC(C)(C)[C@@H]1NC(=O)O[C@@H]2C[C@@H]3C[C@@H]3[C@H]2CC/C=C/C(F)(F)c2nc3ccc(C#N)cc3nc2O[C@@H]2C[C@@H](C(=O)N[C@]3(C(=O)NS(=O)(=O)C4(C)CC4)C[C@H]3C(F)F)N(C2)C1=O [Example 13, (1aS,2aR,6S,9S,11R,20E,23aR,23bS)-6-tert-butyl-15-cyano-N-[(1R,2R)-2-(difluoromethyl)-1-{[(1-methylcyclopropyl)sulfonyl]carbamoyl}cyclopropyl]-19,19-difluoro-4,7-dioxo-1a,2,2a,4,5,6,7,10,11,19,22,23,23a,23b-tetradecahydro-1H,9H-8,11-methanocyclopropa[4′,5′]cyclopenta[1′,2′18,19][1,10,3,6]dioxadiazacyclononadecino[11,12-b]quinoxaline-9-carboxamide] | 0.03 | 3.4 | 0.99
